Assays:
Format in all cases: in vivo
[1] = test system: ducksalad (Heteranhera limosa); assay: Test B flooded paddy test, visual plant response rating; conditions: 250 g ai/ha, Flood, applied to paddy water, 2-leaf stage, evaluated after 13 to 15 days
Summary of the method: (§1)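 Greenhouse paddy conditions applied: two-leaf plants, a 3 cm flood above the soil surface maintained throughout, and compound added to the water rather than the foliage. Plants were judged visually against controls at 13 to 15 days.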

[2] = test system: sedge, umbrella (small-flower umbrella sedge, Cyperus difformis); assay: as above; conditions: 250 g ai/ha, Flood, applied to paddy water, 2-leaf stage, evaluated after 13 to 15 days
Summary of the method: as §1

[3] = test system: barnyardgrass (Echinochloa crus-galli); assay: as above; conditions: 250 g ai/ha, Flood, applied to paddy water, 2-leaf stage, evaluated after 13 to 15 days
Summary of the method: as §1

[4] = test system: rice (Oryza sativa); assay: as above; conditions: 250 g ai/ha, Flood, applied to paddy water, 2-leaf stage, evaluated after 13 to 15 days
Summary of the method: as §1

[5] = test system: kochia (Kochia scoparia); assay: Test A postemergence, visual plant response rating; conditions: for Kochia plant response rating (0 to 100 scale): 500 g ai/ha, postemergence, 0 is no effect, 100 is complete control; for Kochia plant response rating: Postemergence, 125 g ai/ha, 0 to 100 scale (0 no effect, 100 complete control)
Summary of the method: (§2)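 Greenhouse pot test in loam–sand soil mix: compound in a surfactant-containing non-phytotoxic solvent applied preemergence (directed soil spray) or postemergence (one- to two-leaf plants, 2–10 cm). Injury scored visually after ~10 days, 0–100.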

[6] = test system: blackgrass (Alopecurus myosuroides); assay: Test A postemergence, visual plant response rating; conditions: for Blackgrass plant response rating (0 to 100 scale): 500 g ai/ha, postemergence, 0 is no effect, 100 is complete control; for Blackgrass plant response rating: Postemergence, 125 g ai/ha, 0 to 100 scale (0 no effect, 100 complete control)
Summary of the method: as §2

[7] = test system: galium (catchweed bedstraw, Galium aparine); assay: Test A postemergence, visual plant response rating; conditions: for Galium plant response rating (0 to 100 scale): 500 g ai/ha, postemergence, 0 is no effect, 100 is complete control; for Galium plant response rating: Postemergence, 125 g ai/ha, 0 to 100 scale (0 no effect, 100 complete control)
Summary of the method: as §2

[8] = test system: pigweed (Amaranthus retroflexus); assay: Test A postemergence, visual plant response rating; conditions: for Pigweed plant response rating (0 to 100 scale): 500 g ai/ha, postemergence, 0 is no effect, 100 is complete control; for Pigweed plant response rating: Postemergence, 125 g ai/ha, 0 to 100 scale (0 no effect, 100 complete control)
Summary of the method: as §2

[9] = test system: barnyardgrass (Echinochloa crus-galli); assay: Test A postemergence, visual plant response rating; conditions: for Barnyardgrass plant response rating (0 to 100 scale): 500 g ai/ha, postemergence, 0 is no effect, 100 is complete control; for Barnyardgrass plant response rating: Postemergence, 125 g ai/ha, 0 to 100 scale (0 no effect, 100 complete control)
Summary of the method: as §2

[10] = test system: corn (Zea mays); assay: Test A postemergence, visual plant response rating; conditions: for Corn plant response rating (0 to 100 scale): 500 g ai/ha, postemergence, 0 is no effect, 100 is complete control; for Corn plant response rating: Postemergence, 125 g ai/ha, 0 to 100 scale (0 no effect, 100 complete control)
Summary of the method: as §2

[11] = test system: wheat (Triticum aestivum); assay: Test A postemergence, visual plant response rating; conditions: for Wheat plant response rating (0 to 100 scale): 500 g ai/ha, postemergence, 0 is no effect, 100 is complete control; for Wheat plant response rating: Postemergence, 125 g ai/ha, 0 to 100 scale (0 no effect, 100 complete control)
Summary of the method: as §2

[12] = test system: foxtail, giant (giant foxtail, Setaria faberii); assay: Test A postemergence, visual plant response rating; conditions: for Foxtail, Giant plant response rating (0 to 100 scale): 500 g ai/ha, postemergence, 0 is no effect, 100 is complete control; for Foxtail, Giant plant response rating: Postemergence, 125 g ai/ha, 0 to 100 scale (0 no effect, 100 complete control)
Summary of the method: as §2

[13] = test system: ragweed (common ragweed, Ambrosia elatior); assay: Test A postemergence, visual plant response rating; conditions: for Ragweed plant response rating (0 to 100 scale): 500 g ai/ha, postemergence, 0 is no effect, 100 is complete control; for Ragweed plant response rating: Postemergence, 125 g ai/ha, 0 to 100 scale (0 no effect, 100 complete control)
Summary of the method: as §2

[14] = test system: Italian ryegrass (Lolium multiflorum); assay: Test A postemergence, visual plant response rating; conditions: for Ryegrass, Italian plant response rating (0 to 100 scale): 500 g ai/ha, postemergence, 0 is no effect, 100 is complete control; for Ryegrass, Italian plant response rating: Postemergence, 125 g ai/ha, 0 to 100 scale (0 no effect, 100 complete control)
Summary of the method: as §2

[15] = test system: kochia (Kochia scoparia); assay: Test A preemergence, visual plant response rating; conditions: for Kochia plant response rating: 125 g ai/ha, preemergence, 0 to 100 scale, 0 no effect, 100 complete control; for Kochia plant response rating (0 to 100 scale): 500 g ai/ha Preemergence, approx. 10 days
Summary of the method: as §2

[16] = test system: pigweed (Amaranthus retroflexus); assay: Test A preemergence, visual plant response rating; conditions: for Pigweed plant response rating: 125 g ai/ha, preemergence, 0 to 100 scale, 0 no effect, 100 complete control; for Pigweed plant response rating (0 to 100 scale): 500 g ai/ha Preemergence, approx. 10 days
Summary of the method: as §2

[17] = test system: barnyardgrass (Echinochloa crus-galli); assay: Test A preemergence, visual plant response rating; conditions: for Barnyardgrass plant response rating: 125 g ai/ha, preemergence, 0 to 100 scale, 0 no effect, 100 complete control; for Barnyardgrass plant response rating (0 to 100 scale): 500 g ai/ha Preemergence, approx. 10 days
Summary of the method: as §2

[18] = test system: foxtail, giant (giant foxtail, Setaria faberii); assay: Test A preemergence, visual plant response rating; conditions: for Foxtail, Giant plant response rating: 125 g ai/ha, preemergence, 0 to 100 scale, 0 no effect, 100 complete control; for Foxtail, Giant plant response rating (0 to 100 scale): 500 g ai/ha Preemergence, approx. 10 days
Summary of the method: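 Ratings use a 0–100 visual scale (100 = complete control) against untreated controls, scored about 10 days after greenhouse treatment. Test chemicals were formulated in surfactant-containing non-phytotoxic solvent and applied either as soil spray after planting (preemergence) or onto one- to two-leaf, 2–10 cm plants (postemergence).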

[19] = test system: ragweed (common ragweed, Ambrosia elatior); assay: Test A preemergence, visual plant response rating; conditions: for Ragweed plant response rating: 125 g ai/ha, preemergence, 0 to 100 scale, 0 no effect, 100 complete control; for Ragweed plant response rating (0 to 100 scale): 500 g ai/ha Preemergence, approx. 10 days
Summary of the method: as §2

[20] = test system: Italian ryegrass (Lolium multiflorum); assay: Test A preemergence, visual plant response rating; conditions: for Ryegrass, Italian plant response rating: 125 g ai/ha, preemergence, 0 to 100 scale, 0 no effect, 100 complete control; for Ryegrass, Italian plant response rating (0 to 100 scale): 500 g ai/ha Preemergence, approx. 10 days
Summary of the method: as §2

Row | SMILES | Plant response rating, Ducksalad (0 to 100 scale, 0 is no effect, 100 is complete control) [1] | Plant response rating, Sedge, Umbrella (0 to 100 scale, 0 is no effect, 100 is complete control) [2] | Plant response rating, Barnyardgrass (0 to 100 scale, 0 is no effect, 100 is complete control) [3] | Plant response rating, Rice (0 to 100 scale, 0 is no effect, 100 is complete control) [4] | Kochia plant response rating (0 to 100 scale) [5] | Kochia plant response rating [5] | Blackgrass plant response rating (0 to 100 scale) [6] | Blackgrass plant response rating [6] | Galium plant response rating (0 to 100 scale) [7] | Galium plant response rating [7] | Pigweed plant response rating (0 to 100 scale) [8] | Pigweed plant response rating [8] | Barnyardgrass plant response rating (0 to 100 scale) [9] | Barnyardgrass plant response rating [9] | Corn plant response rating (0 to 100 scale) [10] | Corn plant response rating [10] | Wheat plant response rating (0 to 100 scale) [11] | Wheat plant response rating [11] | Foxtail, Giant plant response rating (0 to 100 scale) [12] | Foxtail, Giant plant response rating [12] | also measured
1 | CON=C(c1c(O)c(C)nn(C)c1=O)c1ccc(Cl)c2ccccc12 [Compound 40] | 0 | 0 | 0 | 0 | 40 | 10 | 80 | 70 | 100 | 70 | 40 | 10 | 30 | 30 | 10 | 0 | 50 | 20 | 50 | 10 | Ragweed plant response rating (0 to 100 scale) [13]: 80; Ragweed plant response rating [13]: 70; Ryegrass, Italian plant response rating (0 to 100 scale) [14]: 90; Ryegrass, Italian plant response rating [14]: 50; Kochia plant response rating [15]: 0; Kochia plant response rating (0 to 100 scale) [15]: 10; Pigweed plant response rating [16]: 30; Pigweed plant response rating (0 to 100 scale) [16]: 60; Barnyardgrass plant response rating [17]: 30; Barnyardgrass plant response rating (0 to 100 scale) [17]: 60; Foxtail, Giant plant response rating [18]: 50; Foxtail, Giant plant response rating (0 to 100 scale) [18]: 90; Ragweed plant response rating [19]: 40; Ragweed plant response rating (0 to 100 scale) [19]: 80; Ryegrass, Italian plant response rating [20]: 20; Ryegrass, Italian plant response rating (0 to 100 scale) [20]: 60
2 | CON=C(c1c(O)c(C)nn(C)c1=O)c1cccc2sccc12 [Compound 58] | 0 | 0 | 0 | 0 | 70 | 60 | 90 | 80 | 90 | 80 | 90 | 70 | 50 | 20 | 0 | 0 | 80 | 40 | 80 | 40 | Ragweed plant response rating (0 to 100 scale) [13]: 100; Ragweed plant response rating [13]: 50; Ryegrass, Italian plant response rating (0 to 100 scale) [14]: 90; Ryegrass, Italian plant response rating [14]: 80; Kochia plant response rating [15]: 30; Kochia plant response rating (0 to 100 scale) [15]: 60; Pigweed plant response rating [16]: 10; Pigweed plant response rating (0 to 100 scale) [16]: 50; Barnyardgrass plant response rating [17]: 10; Barnyardgrass plant response rating (0 to 100 scale) [17]: 60; Foxtail, Giant plant response rating [18]: 60; Foxtail, Giant plant response rating (0 to 100 scale) [18]: 100; Ragweed plant response rating [19]: 60; Ragweed plant response rating (0 to 100 scale) [19]: 80; Ryegrass, Italian plant response rating [20]: 70; Ryegrass, Italian plant response rating (0 to 100 scale) [20]: 100

— US20210045385A1, “PYRIDAZINONE-SUBSTITUTED KETOXIMES AS HERBICIDES” (FMC Corporation, priority 2018, published 2021)
